Patent US20200017496A1 (priority 2017, published 2020)
Read-outs that look alike come from different tables or passages of the source.

Columns and labels:
Test in all cases: MIC of compounds alone and combined with antibacterials, broth microdilution (CLSI)
Assay type in all cases: cell-based
[1] = tested on: Morganella morganii (MMO) isolates; conditions: AF1 @ 4 μg/mL
Summary of the method: (§1)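 Log-phase isolates at final 5·10^5 CFU/mL in cation-adjusted Mueller-Hinton broth, incubated 16-20 h at 35° C in ambient air. MIC read visually as lowest concentration preventing growth, for compound alone and for antibacterial at each compound concentration.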

[2] = tested on: Klebsiella oxytoca (KOX) isolates; conditions: for MIC ATB in combination: AF1 @ 4 μg/mL; for MIC: Klebsiella oxytoca, ATB alone
Summary of the method: as §1

[3] = tested on: Serratia marcescens (SMA) isolates; conditions: for MIC: Serratia marcescens, ATB alone, read-out: MIC
Summary of the method: as §1

[4] = tested on: Klebsiella pneumoniae (KPN) isolates; conditions: AF1 @ 4 μg/mL
Summary of the method: as §1

[5] = strain SMA UFR238, antibacterial combined with AF1 @ 4 μg/mL

COCC1=C(C(=O)O)N2C(=O)[C@@H](NC(=O)/C(=N\OC)c3csc(N)n3)[C@H]2SC1 [POD, Cefpodoxime]
MIC ATB in combination ([1]; MMO 200321): 2 µg/mL
MIC ATB in combination ([1]; MMO UFR144): 2 µg/mL
MIC ATB in combination ([1]; MMO UFR240): <=0.25 μg/mL
MIC ATB in combination ([1]; MMO UFR241): 2 µg/mL
MIC ATB in combination ([1]; MMO UFR242): 4 µg/mL
MIC ATB in combination ([1]; MMO UFR243): 4 µg/mL
MIC ATB in combination ([1]; MMO UFR244): <=0.25 μg/mL
MIC ATB in combination ([1]; MMO UFR245): 2 µg/mL
MIC ATB in combination ([1]; MMO UFR246): 4 µg/mL
MIC ATB in combination ([1]; MMO UFR247): 1 µg/mL
MIC ATB in combination ([2]; KOX UFR21): 1 µg/mL
MIC ATB in combination ([2]; KOX UFR173): 0.5 µg/mL
MIC ATB in combination ([2]; KOX UFR223): <=0.25 μg/mL
MIC ATB in combination ([2]; KOX UFR224): <=0.25 μg/mL
MIC ATB in combination ([3]; SMA UFR30, AF1 @ 4 μg/mL): 0.5 µg/mL
MIC ATB in combination ([3]; SMA UFR134, AF1 @ 4 μg/mL): 2 µg/mL
MIC ATB in combination ([3]; SMA UFR135, AF1 @ 4 μg/mL): 4 µg/mL
MIC ATB in combination ([3]; SMA UFR136, AF1 @ 4 μg/mL): 8 µg/mL
MIC ATB in combination ([3]; SMA UFR137, AF1 @ 4 μg/mL): 0.5 µg/mL
MIC ATB in combination ([3]; SMA UFR138, AF1 @ 4 μg/mL): 0.5 µg/mL
MIC ATB in combination ([3]; SMA UFR139, AF1 @ 4 μg/mL): 2 µg/mL
MIC ATB in combination ([3]; SMA UFR141, AF1 @ 4 μg/mL): 2 µg/mL
MIC ATB in combination ([3]; SMA UFR142, AF1 @ 4 μg/mL): 1 µg/mL
MIC ATB in combination ([3]; SMA UFR143, AF1 @ 4 μg/mL): 1 µg/mL
MIC ATB in combination ([3]; SMA UFR239, AF1 @ 4 μg/mL): 2 µg/mL
MIC ATB in combination [3, 5]: 2 µg/mL
MIC ATB in combination ([4]; KPN 6299): <=0.25 μg/mL
MIC ATB in combination ([4]; KPN 110376): <=0.25 μg/mL
MIC ATB in combination ([4]; KPN 131119): <=0.25 μg/mL
MIC ATB in combination ([4]; KPN 140513): 4 µg/mL
MIC ATB in combination ([4]; KPN 160143): <=0.25 μg/mL
MIC ATB in combination ([4]; KPN 190128): 0.5 µg/mL
MIC ATB in combination ([4]; KPN 190270): 0.5 µg/mL
MIC ATB in combination ([4]; KPN 190425): <=0.25 μg/mL
MIC ATB in combination ([4]; KPN 190551): <=0.25 μg/mL
MIC ATB in combination ([4]; KPN 200047): <=0.25 μg/mL
MIC ATB in combination ([4]; KPN 200327): <=0.25 μg/mL
MIC ATB in combination ([4]; KPN 260251): <=0.25 μg/mL
MIC ATB in combination ([4]; KPN 260252): 4 µg/mL
MIC ATB in combination ([4]; KPN 260376): <=0.25 μg/mL
MIC ATB in combination ([4]; KPN 270077): 0.5 µg/mL
MIC ATB in combination ([4]; KPN 700603): 0.5 µg/mL
MIC ATB in combination ([4]; KPN ARA): <=0.25 μg/mL
MIC ATB in combination ([4]; KPN BAA-1898): 0.5 µg/mL
MIC ATB in combination ([4]; KPN LIB): <=0.25 μg/mL
MIC ATB in combination ([4]; KPN UFR22_O): <=0.25 μg/mL
MIC ATB in combination ([4]; KPN UFR23): <=0.25 μg/mL
MIC ATB in combination ([4]; KPN UFR24): 1 µg/mL
MIC ATB in combination ([4]; KPN UFR25): <=0.25 μg/mL
MIC ATB in combination ([4]; KPN UFR27): 4 µg/mL
MIC ATB in combination ([4]; KPN UFR28): <=0.25 μg/mL
MIC ATB in combination ([4]; KPN UFR65): 0.5 µg/mL
MIC ATB in combination ([4]; KPN UFR66): 2 µg/mL
MIC ATB in combination ([4]; KPN UFR67): 4 µg/mL
MIC ATB in combination ([4]; KPN UFR68): 1 µg/mL
MIC ATB in combination ([4]; KPN UFR76): >128 µg/mL
MIC ATB in combination ([4]; KPN UFR77): 4 µg/mL
MIC ATB in combination ([4]; KPN UFR78): 128 µg/mL
MIC ATB in combination ([4]; KPN UFR79): 4 µg/mL
MIC ATB in combination ([4]; KPN UFR80): 0.5 µg/mL
MIC ATB in combination ([4]; KPN UFR81): 4 µg/mL
MIC ATB in combination ([4]; KPN UFR215): 0.5 µg/mL
MIC ATB in combination ([4]; KPN UFR216): <=0.25 μg/mL
MIC ATB in combination ([4]; KPN UFR217): <=0.25 μg/mL
MIC ATB in combination ([4]; KPN UFR219): <=0.25 μg/mL
MIC ATB in combination ([4]; KPN UFR220): 4 µg/mL
MIC ATB in combination ([4]; KPN UFR221): 1 µg/mL
MIC ATB in combination ([4]; KPN UFR222): 8 µg/mL
MIC ATB in combination ([4]; KPN UFR227O): 4 µg/mL

C=CC1=C(C(=O)O)N2C(=O)[C@@H](NC(=O)/C(=N\O)c3csc(N)n3)[C@H]2SC1 [CDR, Cefdinir]
MIC ATB in combination ([1]; MMO 200321): 4 µg/mL
MIC ATB in combination ([1]; MMO UFR144): 4 µg/mL
MIC ATB in combination ([1]; MMO UFR240): 0.5 µg/mL
MIC ATB in combination ([1]; MMO UFR241): 4 µg/mL
MIC ATB in combination ([1]; MMO UFR242): 4 µg/mL
MIC ATB in combination ([1]; MMO UFR243): 4 µg/mL
MIC ATB in combination ([1]; MMO UFR244): 2 µg/mL
MIC ATB in combination ([1]; MMO UFR245): 4 µg/mL
MIC ATB in combination ([1]; MMO UFR246): 2 µg/mL
MIC ATB in combination ([1]; MMO UFR247): 1 µg/mL
MIC ATB in combination ([2]; KOX UFR21): 8 µg/mL
MIC ATB in combination ([2]; KOX UFR173): 0.5 µg/mL
MIC ATB in combination ([2]; KOX UFR223): <=0.25 μg/mL
MIC ATB in combination ([2]; KOX UFR224): <=0.25 μg/mL
MIC ([2]; strain KOX UFR21 (TEM-1, CTX-M-15, OXA-48)): > 256 µg/mL
MIC ([2]; strain KOX UFR223 (SHV-11, OXA-48)): > 256 µg/mL
MIC ([2]; strain KOX UFR224 (CTX-M-15, OXA-48)): > 256 µg/mL
MIC ATB in combination ([3]; SMA UFR30, AF1 @ 4 μg/mL): 1 µg/mL
MIC ATB in combination ([3]; SMA UFR134, AF1 @ 4 μg/mL): 4 µg/mL
MIC ATB in combination ([3]; SMA UFR135, AF1 @ 4 μg/mL): 16 µg/mL
MIC ATB in combination ([3]; SMA UFR136, AF1 @ 4 μg/mL): 16 µg/mL
MIC ATB in combination ([3]; SMA UFR137, AF1 @ 4 μg/mL): 1 µg/mL
MIC ATB in combination ([3]; SMA UFR138, AF1 @ 4 μg/mL): 4 µg/mL
MIC ATB in combination ([3]; SMA UFR139, AF1 @ 4 μg/mL): 4 µg/mL
MIC ATB in combination ([3]; SMA UFR141, AF1 @ 4 μg/mL): 4 µg/mL
MIC ATB in combination ([3]; SMA UFR142, AF1 @ 4 μg/mL): 8 µg/mL
MIC ATB in combination ([3]; SMA UFR143, AF1 @ 4 μg/mL): 2 µg/mL
MIC ATB in combination ([3]; SMA UFR239, AF1 @ 4 μg/mL): 16 µg/mL
MIC ([3]; strain SMA UFR238 (OXA-48)): > 256 µg/mL
MIC ([3]; strain SMA UFR30 (OXA-405)): > 256 µg/mL
MIC ([3]; strain SMA UFR136 (TEM-1, SHV-12, KPC-2)): > 256 µg/mL
MIC ([3]; strain SMA UFR141 (OXA-48)): > 256 µg/mL
MIC ([3]; strain SMA UFR142 (OXA-48)): > 256 µg/mL
MIC ([3]; strain SMA UFR143 (CTX-M-15, OXA-1, OXA-48)): > 256 µg/mL
MIC ATB in combination [3, 5]: 4 µg/mL
MIC ATB in combination ([4]; KPN 6299): <=0.25 μg/mL
MIC ATB in combination ([4]; KPN 110376): 0.5 µg/mL
MIC ATB in combination ([4]; KPN 131119): 1 µg/mL
MIC ATB in combination ([4]; KPN 140513): 16 µg/mL
MIC ATB in combination ([4]; KPN 160143): <=0.25 μg/mL
MIC ATB in combination ([4]; KPN 190128): 1 µg/mL
MIC ATB in combination ([4]; KPN 190270): 1 µg/mL
MIC ATB in combination ([4]; KPN 190425): <=0.25 μg/mL
MIC ATB in combination ([4]; KPN 190551): <=0.25 μg/mL
MIC ATB in combination ([4]; KPN 200047): <=0.25 μg/mL
MIC ATB in combination ([4]; KPN 200327): <=0.25 μg/mL
MIC ATB in combination ([4]; KPN 260251): 0.5 µg/mL
MIC ATB in combination ([4]; KPN 260252): 16 µg/mL
MIC ATB in combination ([4]; KPN 260376): <=0.25 μg/mL
MIC ATB in combination ([4]; KPN 270077): 1 µg/mL
MIC ATB in combination ([4]; KPN 700603): 0.5 µg/mL
MIC ATB in combination ([4]; KPN ARA): 0.5 µg/mL
MIC ATB in combination ([4]; KPN BAA-1898): 0.5 µg/mL
MIC ATB in combination ([4]; KPN LIB): 1 µg/mL
MIC ATB in combination ([4]; KPN UFR22_O): 1 µg/mL
MIC ATB in combination ([4]; KPN UFR23): 0.5 µg/mL
MIC ATB in combination ([4]; KPN UFR24): 4 µg/mL
MIC ATB in combination ([4]; KPN UFR25): <=0.25 μg/mL
MIC ATB in combination ([4]; KPN UFR27): 8 µg/mL
MIC ATB in combination ([4]; KPN UFR28): 1 µg/mL
MIC ATB in combination ([4]; KPN UFR65): 2 µg/mL
MIC ATB in combination ([4]; KPN UFR66): 2 µg/mL
MIC ATB in combination ([4]; KPN UFR67): 16 µg/mL
MIC ATB in combination ([4]; KPN UFR68): 2 µg/mL
MIC ATB in combination ([4]; KPN UFR76): >128 µg/mL
MIC ATB in combination ([4]; KPN UFR77): 8 µg/mL
MIC ATB in combination ([4]; KPN UFR78): 128 µg/mL
MIC ATB in combination ([4]; KPN UFR79): 16 µg/mL
MIC ATB in combination ([4]; KPN UFR80): 1 µg/mL
MIC ATB in combination ([4]; KPN UFR81): 16 µg/mL
MIC ATB in combination ([4]; KPN UFR215): 0.5 µg/mL
MIC ATB in combination ([4]; KPN UFR216): <=0.25 μg/mL
MIC ATB in combination ([4]; KPN UFR217): <=0.25 μg/mL
MIC ATB in combination ([4]; KPN UFR219): <=0.25 μg/mL
MIC ATB in combination ([4]; KPN UFR220): 2 µg/mL
MIC ATB in combination ([4]; KPN UFR221): 2 µg/mL
MIC ATB in combination ([4]; KPN UFR222): 16 µg/mL
MIC ATB in combination ([4]; KPN UFR227O): 32 µg/mL
